Assay results reported in patent US20120214760A1, “TREATMENT OF URINARY TRACT INFECTIONS WITH ANTIBACTERIAL AMINOGLYCOSIDE COMPOUNDS” (Achaogen, Inc., priority 2009, published 2012).
≈ marks a conversion by molar mass, not a printed value. Where two headings read alike, the source gives them in different places.

Tests used:
Assay type in all cases: cell-based
[1] = test system: E. coli ATCC 25922 (AECO001); experiment: MIC, CLSI broth microdilution; settings: for MIC: Escherichia coli; for MIC AECO001: Table 3
Procedure, shortened: (§1)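 CLSI M7-A7 broth microdilution in Mueller Hinton Broth using two-fold compound serial dilutions. Inoculum was prepared from the previous day's agar colonies at a final 5×10^5 CFU/mL. Plates were incubated at 35° C for 20 hours in ambient air.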

[2] = test system: P. aeruginosa ATCC 27853 (APAE001); experiment: MIC, CLSI broth microdilution; settings: Pseudomonas aeruginosa
Procedure, shortened: as §1

[3] = test system: A. calcoaceticus AACA005, AAC(6′)-I; experiment: MIC, aminoglycoside resistant strain; settings: Table 3
Protocol: (§2) Minimum inhibitory concentrations (MIC) were determined by reference Clinical and Laboratory Standards Institute (CLSI) broth microdilution methods per M7-A7 [2006]. Quality control ranges utilizing E. coli ATCC 25922, P. aeruginosa ATCC 27853 and S. aureus ATCC 29213, and interpretive criteria for comparator agents were as published in CLSI M100-S17 [2007]. Briefly, serial two-fold dilutions of the test compounds were prepared at 2× concentration in Mueller Hinton Broth. The compound dilutions were mixed in 96-well assay plates in a 1:1 ratio with bacterial inoculum. The inoculum was prepared by suspension of a colony from an agar plate that was prepared the previous day. Bacteria were suspended in sterile saline and added to each assay plate to obtain a final concentration of 5×10^5 CFU/mL. The plates were incubated at 35° C. for 20 hours in ambient air.
(§3) These MIC assays were conducted following the same protocol as set forth in Example 110. As shown, substituted sisomicin derivatives with groups other than methyl at the 6′-position have improved activity against strains expressing the AAC6′-modifying enzymes.

[4] = test system: E. coli AECO040, AAC(6′)-I; experiment: MIC, aminoglycoside resistant strain; settings: Table 3
Protocol: as §2, §3

[5] = test system: S. marcescens ASMA003, ANT(2″) + AAC(6′); experiment: MIC, aminoglycoside resistant strain; settings: Table 3
Protocol: as §2, §3

[6] = ATCC25922, read-out: MIC AECO001, Table 1, AECO001 is ATCC25922
[7] = ATCC27853, read-out: MIC APAE001, Table 1, APAE001 is ATCC27853
[8] = ATCC25922, Table 2, read-out: MIC E. coli
[9] = Table 1, AECO001 is ATCC25922, read-out: MIC AECO001
[10] = ATCC27853, Table 2, read-out: MIC P. aeruginosa

Structure (SMILES) | MIC [1, 6] | MIC AECO001 ([1]; ATCC25922) | MIC [2, 7] | MIC AACA005 [3] | MIC AECO040 [4] | MIC ASMA003 [5] | MIC [1, 8] | MIC [1, 9] | MIC [2, 10]
CN[C@@H]1[C@@H](O)[C@@H](O[C@@H]2[C@@H](O)[C@H](O[C@H]3OC(CNCCCN)=CC[C@H]3N)[C@@H](N)C[C@H]2NC(=O)[C@@H](O)CCN)OC[C@]1(C)O [Example 48, 6′-(3-Amino-propyl)-1-(4-amino-2(S)-hydroxy-butyryl)-sisomicin] | < 1 µg/mL | 1 µg/mL (≈ 1.65 µM) | 1 to 16 µg/mL (≈ 1.65 to 26.4 µM) | 2 µg/mL (≈ 3.3 µM) | 0.5 µg/mL (≈ 0.825 µM) | 2 µg/mL (≈ 3.3 µM) |  |  | 
CNCC1=CC[C@@H](N)[C@@H](O[C@H]2C(O)[C@@H](O[C@H]3OC[C@](C)(O)[C@H](NC)[C@H]3O)[C@H](N)C[C@@H]2N)O1 (some centres unmarked) [Mono-substituted Compound 1, reference compound] |  | 1 µg/mL (≈ 2.17 µM) |  | 2 µg/mL (≈ 4.33 µM) | > 64 µg/mL | 1 µg/mL (≈ 2.17 µM) |  |  | 
CN[C@@H]1[C@@H](O)[C@@H](O[C@@H]2[C@@H](O)[C@H](O[C@H]3OC(CNCC4CC4)=CC[C@H]3N)[C@@H](N)C[C@H]2NC(=O)[C@@H](O)CN)OC[C@]1(C)O [Example 13, 6′-(Methyl-cyclopropyl)-1-(3-amino-2(S)-hydroxy-propionyl)-sisomicin] | 1 to 16 µg/mL (≈ 1.7 to 27.2 µM) | 1 µg/mL (≈ 1.7 µM) | > 16 µg/mL | 2 µg/mL (≈ 3.4 µM) | 0.125 µg/mL (≈ 0.212 µM) | 2 µg/mL (≈ 3.4 µM) |  |  | 
CN[C@@H]1[C@@H](O)[C@@H](O[C@@H]2[C@@H](O)[C@H](O[C@H]3OC(CNCCO)=CC[C@H]3N)[C@@H](N)C[C@H]2NC(=O)[C@@H](O)CN)OC[C@]1(C)O [Example 16, 6′-(2-Hydroxy-ethyl)-1-(3-amino-2(S)-hydroxy-propionyl)-sisomicin] |  | 1 µg/mL (≈ 1.73 µM) |  | 2 µg/mL (≈ 3.46 µM) | 1 µg/mL (≈ 1.73 µM) | 2 µg/mL (≈ 3.46 µM) | < 1 µg/mL | < 1 µg/mL | 1 to 16 µg/mL (≈ 1.73 to 27.6 µM)
CN[C@@H]1[C@@H](O)[C@@H](O[C@@H]2C(O)[C@H](O[C@H]3OC(CNCC4CCNCC4)=CC[C@H]3N)[C@@H](N)C[C@H]2N)OC[C@]1(C)O (some centres unmarked) [Mono-substituted Compound 3, reference compound] |  | 0.5 µg/mL (≈ 0.918 µM) |  | 0.5 µg/mL (≈ 0.918 µM) | 0.25 µg/mL (≈ 0.459 µM) | 1 µg/mL (≈ 1.84 µM) |  |  | 
CN[C@@H]1[C@@H](O)[C@@H](O[C@@H]2C(O)[C@H](O[C@H]3OC(CNCC4CC4)=CC[C@H]3N)[C@@H](N)C[C@H]2N)OC[C@]1(C)O (some centres unmarked) [Mono-substituted Compound 2, reference compound] |  | 1 µg/mL (≈ 1.99 µM) |  | 4 µg/mL (≈ 7.97 µM) | 1 µg/mL (≈ 1.99 µM) | 0.5 µg/mL (≈ 0.997 µM) |  |  | 
CN[C@@H]1[C@@H](O)[C@@H](O[C@@H]2C(O)[C@H](O[C@H]3OC(CNCCCN)=CC[C@H]3N)[C@@H](N)C[C@H]2N)OC[C@]1(C)O (some centres unmarked) [Mono-substituted Compound 4, reference compound] |  | 2 µg/mL (≈ 3.96 µM) |  | 1 µg/mL (≈ 1.98 µM) | 16 µg/mL (≈ 31.7 µM) | 1 µg/mL (≈ 1.98 µM) |  |  | 
CN[C@@H]1[C@@H](O)[C@@H](O[C@@H]2[C@@H](O)[C@H](O[C@H]3OC(CNCC4CC4)=CC[C@H]3N)[C@@H](N)C[C@H]2NC(=O)[C@@H](O)CCN)OC[C@]1(C)O [Example 18, 6′-(Methyl-cyclopropyl)-1-(4-amino-2(S)-hydroxy-butyryl)-sisomicin] | < 1 µg/mL | 1 µg/mL (≈ 1.66 µM) | 1 to 16 µg/mL (≈ 1.66 to 26.5 µM) | 2 µg/mL (≈ 3.32 µM) | 0.25 µg/mL (≈ 0.415 µM) | 4 µg/mL (≈ 6.64 µM) |  |  | 
CN[C@@H]1C(O)[C@@H](O[C@@H]2[C@@H](O)[C@H](OC3OC(CN)=CC[C@H]3N)[C@@H](N)C[C@H]2NC(=O)C2(O)CNC2)OC[C@]1(C)O (some centres unmarked) [Mono-substituted Compound 7, reference compound] |  | 1 µg/mL (≈ 1.83 µM) |  | 32 µg/mL (≈ 58.5 µM) | 4 µg/mL (≈ 7.32 µM) | 16 µg/mL (≈ 29.3 µM) |  |  | 
CN[C@@H]1C(O)[C@@H](O[C@@H]2[C@@H](O)[C@H](OC3OC(CN)=CC[C@H]3N)[C@@H](N)C[C@H]2NC(=O)[C@@H](O)CCN)OC[C@]1(C)O (some centres unmarked) [Mono-substituted Compound 6, reference compound] |  | 0.5 µg/mL (≈ 0.911 µM) |  | 16 µg/mL (≈ 29.2 µM) | 4 µg/mL (≈ 7.29 µM) | 4 µg/mL (≈ 7.29 µM) |  |  | 
CN[C@@H]1[C@@H](O)[C@@H](O[C@@H]2[C@@H](O)[C@H](O[C@H]3OC(CN)=CC[C@H]3N)[C@@H](N)C[C@H]2N)OC[C@]1(C)O [Sisomicin, reference compound] |  | 0.5 µg/mL (≈ 1.12 µM) |  | 32 µg/mL (≈ 71.5 µM) | 32 µg/mL (≈ 71.5 µM) | 8 µg/mL (≈ 17.9 µM) |  |  | 
CNCC1=CC[C@@H](N)[C@@H](O[C@H]2[C@H](O)[C@@H](O[C@H]3OC[C@](C)(O)[C@H](NC)[C@H]3O)[C@H](NC(=O)C3(O)CNC3)C[C@@H]2N)O1 [Example 61] | < 1 µg/mL | 1 µg/mL (≈ 1.78 µM) | 1 to 16 µg/mL (≈ 1.78 to 28.5 µM) | 2 µg/mL (≈ 3.57 µM) | 16 µg/mL (≈ 28.5 µM) | 4 µg/mL (≈ 7.13 µM) |  |  | 
CN[C@@H]1[C@@H](O)[C@@H](O[C@@H]2[C@@H](O)[C@H](O[C@H]3OC(CNCCCN)=CC[C@H]3N)[C@@H](N)C[C@H]2NC(=O)[C@@H](O)CN)OC[C@]1(C)O [Example 17, 6′-(3-Amino-propyl)-1-(3-amino-2(S)-hydroxy-propionyl)-sisomicin] |  | 1 µg/mL (≈ 1.69 µM) |  | 2 µg/mL (≈ 3.38 µM) | 0.5 µg/mL (≈ 0.845 µM) | 2 µg/mL (≈ 3.38 µM) | < 1 µg/mL | < 1 µg/mL | 1 to 16 µg/mL (≈ 1.69 to 27 µM)
CN[C@@H]1C(O)[C@@H](O[C@@H]2[C@@H](O)[C@H](OC3OC(CN)=CC[C@H]3N)[C@@H](N)C[C@H]2NC(=O)[C@@H](O)CN)OC[C@]1(C)O (some centres unmarked) [Mono-substituted Compound 5, reference compound] |  | 0.5 µg/mL (≈ 0.935 µM) |  | 32 µg/mL (≈ 59.9 µM) | 8 µg/mL (≈ 15 µM) | 2 µg/mL (≈ 3.74 µM) |  |  | 
CN[C@@H]1[C@@H](O)[C@@H](O[C@@H]2[C@@H](O)[C@H](O[C@H]3OC(CNCCCN)=CC[C@H]3N)[C@@H](N)C[C@H]2NC(=O)CO)OC[C@]1(C)O [Example 24, 6′-(3-Amino-propyl)-1-(2-hydroxy-acetyl)-sisomicin] | 1 to 16 µg/mL (≈ 1.78 to 28.4 µM) |  | 1 to 16 µg/mL (≈ 1.78 to 28.4 µM) |  |  |  |  |  | 
CN[C@@H]1[C@@H](O)[C@@H](O[C@@H]2[C@@H](O)[C@H](O[C@H]3OC(CNCC(C)(C)CN)=CC[C@H]3N)[C@@H](N)C[C@H]2NC(=O)[C@@H](O)CN)OC[C@]1(C)O [Example 51, 6′-(2,2-Dimethyl-3-amino-propyl)-1-(3-amino-2(S)-hydroxy-propionyl)-sisomicin] | < 1 µg/mL |  | > 16 µg/mL |  |  |  |  |  | 
CN[C@@H]1[C@@H](O)[C@@H](O[C@@H]2[C@@H](O)[C@H](O[C@H]3OC(CNCC4(CN)CC4)=CC[C@H]3N)[C@@H](N)C[C@H]2NC(=O)C(O)C2CNC2)OC[C@]1(C)O (some centres unmarked) [Example 74, 6′-(Methyl-1-aminomethyl-cyclopropyl)-1-(2-(azetidin-3-yl)-2-hydroxy-acetyl)-sisomicin] | 1 to 16 µg/mL (≈ 1.55 to 24.9 µM) |  | > 16 µg/mL |  |  |  |  |  | 
CN[C@@H]1[C@@H](O)[C@@H](O[C@@H]2[C@@H](O)[C@H](O[C@H]3OC(CNCC(O)CN)=CC[C@H]3N)[C@@H](N)C[C@H]2NC(=O)C2(O)CCNC2)OC[C@]1(C)O (some centres unmarked) [Example 42, 6′-(2-Hydroxy-3-amino-propyl)-1-(3-hydroxy-pyrrolidin-3-yl-acetyl)-sisomicin] | 1 to 16 µg/mL (≈ 1.58 to 25.2 µM) |  | 1 to 16 µg/mL (≈ 1.58 to 25.2 µM) |  |  |  |  |  | 
CN[C@@H]1[C@@H](O)[C@@H](O[C@@H]2[C@@H](O)[C@H](O[C@H]3OC(CNCC(C)(C)N)=CC[C@H]3N)[C@@H](N)C[C@H]2NC(=O)[C@@H](O)CN)OC[C@]1(C)O [Example 55, 6′-(2-Methyl-2-amino-propyl)-1-(3-amino-2(S)-hydroxy-propionyl)-sisomicin] | 1 to 16 µg/mL (≈ 1.65 to 26.4 µM) |  | > 16 µg/mL |  |  |  |  |  | 
